Results reported in patent US9561228B2 (Celgene Avilomics Research, Inc., priority 2013, dated 2017).

How the values were obtained:
[1] = system: A375 cells (malignant melanoma); test: Inhibition of cancer cell proliferation, A375 (CellTiterGlo, 72 hours); format: cell-based; conditions: Homo sapiens, A-375
Method in brief: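 GI50 derived from % growth inhibition relative to untreated wells, after luminescence (CellTiterGlo, 10 min) was converted to cell counts using a standard curve. Compound given as 3-fold dilutions from a 2× 5,000 nM stock in serum-free DMEM; 3000 A375 cells/well, 72 h culture at 37 °C.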

[2] = target: T1, MEK1 activated ERK1 (Homo sapiens, UniProt P27361); test: Omnia continuous-read kinase assay for potency against MEK1 activated ERK1; format: biochemical; conditions: MEK1 activated ERK1, ATP at KM; read-out: ERK1 Omnia WT ATP KM IC50
T1 construct: purchased Millipore (Billerica, Mass.) 14-439-K
Method in brief: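 Apparent IC50 came from initial reaction slopes (RFU vs time) plotted against log inhibitor with a variable-slope fit. Reactions were started with ERK1 (4 nM final) added to 50 μM ATP, roughly at its appKM, and 10 μM Sox-conjugated ST17 peptide in 20 mM Tris pH 7.5, 5 mM MgCl2. Fluorescence was monitored every 71 seconds.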

[3] = system: HT-29 cells (colorectal adenocarcinoma); test: Inhibition of cancer cell proliferation, HT-29 (CellTiterGlo, 72 hours); format: cell-based; conditions: Homo sapiens
Method in brief: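 Proliferation over 72 h at 37° C was read by CellTiterGlo luminescence, translated to cell counts with a cell-density standard curve (390–50,000 cells). Compound added as 3-fold dilutions from a 5,000 nM two-fold stock to 3000 seeded HT-29 cells; GI50 from percent inhibition relative to untreated wells.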

T1 sequence (P27361 whole entry): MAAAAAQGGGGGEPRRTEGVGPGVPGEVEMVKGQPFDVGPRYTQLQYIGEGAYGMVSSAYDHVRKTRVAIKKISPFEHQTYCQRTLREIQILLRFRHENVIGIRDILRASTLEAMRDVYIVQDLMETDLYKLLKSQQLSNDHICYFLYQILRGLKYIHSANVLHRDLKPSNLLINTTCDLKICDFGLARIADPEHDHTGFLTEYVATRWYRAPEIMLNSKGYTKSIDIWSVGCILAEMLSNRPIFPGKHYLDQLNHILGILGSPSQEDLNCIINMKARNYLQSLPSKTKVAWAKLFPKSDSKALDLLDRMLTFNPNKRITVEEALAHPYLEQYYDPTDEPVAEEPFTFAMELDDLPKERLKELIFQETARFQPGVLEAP

SMILES	GI50 [1]	IC50 [2]	GI50 [3]
C=CC(=O)Nc1ccccc1Nc1nc(N[C@@H]2CCN(C(C)=O)C2)ncc1C(F)(F)F [Compound I-60, (R)—N-(2-((2-((1-Acetylpyrrolidin-3-yl)amino)-5-(trifluoromethyl)pyrimidin-4-yl)amino)phenyl)acrylamide]	> 1000 nM	501 to 999 nM	101 to 500 nM
C=CC(=O)Nc1cc(OC)ccc1Nc1nc(Nc2cc(Cl)nc(OC)c2)ncc1Cl [Compound I-245, N-(2-((5-chloro-2-((2-chloro-6-methoxypyridin-4-yl)amino)pyrimidin-4-yl)amino)-5-methoxyphenyl)acrylamide]	101 to 500 nM	101 to 500 nM	101 to 500 nM
C=CC(=O)Nc1ccccc1Nc1nc(Nc2cc(Cl)nc(OC)c2)ncc1Cl [Compound I-246, N-(2-((5-chloro-2-((2-chloro-6-methoxypyridin-4-yl)amino)pyrimidin-4-yl)amino)phenyl)acrylamide]	< 100 nM	101 to 500 nM	< 100 nM
C=CC(=O)Nc1ccccc1Nc1nc(Nc2cc(OC)ccc2C)ncc1C(F)(F)F [Compound I-340, N-(2-((2-((5-methoxy-2-methylphenyl)amino)-5-(trifluoromethyl)pyrimidin-4-yl)amino)phenyl)acrylamide]	101 to 500 nM	101 to 500 nM	101 to 500 nM
C=CC(=O)Nc1cc(C)ccc1Nc1nc(Nc2cc(OC)nc(N3CCOCC3)c2)ncc1C(F)(F)F [Compound I-94, N-(2-((2-((2-Methoxy-6-morpholinopyridin-4-yl)amino)-5-(trifluoromethyl)pyrimidin-4-yl)amino)-5-methylphenyl)acrylamide]	< 100 nM	101 to 500 nM	< 100 nM
C=CC(=O)Nc1ccccc1Nc1nc(N[C@H]2CCN(C(=O)OC)C2)ncc1C(F)(F)F [Compound I-59, (S)-methyl 3-((4-((2-Acrylamidophenyl)amino)-5-(trifluoromethyl)pyrimidin-2-yl)amino)pyrrolidine-1-carboxylate]	101 to 500 nM	501 to 999 nM	101 to 500 nM
C=CC(=O)Nc1cc(C)ccc1Nc1nc(Nc2cc(C(N)=O)ccn2)ncc1Cl [Compound I-238, 2-((4-((2-acrylamido-4-methylphenyl)amino)-5-chloropyrimidin-2-yl)amino)isonicotinamide]	101 to 500 nM	101 to 500 nM	101 to 500 nM
C=CC(=O)Nc1cc(C)ccc1Nc1nc(Nc2cc(OC)nc(N(C)C3CC3)c2)ncc1C(F)(F)F [Compound I-342, N-(2-((2-((2-(cyclopropyl(methyl)amino)-6-methoxypyridin-4-yl)amino)-5-(trifluoromethyl)pyrimidin-4-yl)amino)-5-methylphenyl)acrylamide]	101 to 500 nM	501 to 999 nM	< 100 nM
C=CC(=O)Nc1cc(C)ccc1Nc1nc(Nc2cc(OC)nc(N3CCN(CC)CC3)c2)ncc1C(F)(F)F [Compound I-89, N-(2-((2-((2-(4-Ethylpiperazin-1-yl)-6-methoxypyridin-4-yl)amino)-5-(trifluoromethyl)pyrimidin-4-yl)amino)-5-methylphenyl)acrylamide]	< 100 nM	101 to 500 nM	< 100 nM
C=CC(=O)Nc1cc(C)ccc1Nc1nc(Nc2cc(OC)nc(N(C)CCOC)c2)ncc1C(F)(F)F [Compound I-336, N-(2-((2-((2-methoxy-6-((2-methoxyethyl)(methyl)amino)pyridin-4-yl)amino)-5-(trifluoromethyl)pyrimidin-4-yl)amino)-5-methylphenyl)acrylamide]	< 100 nM	501 to 999 nM	< 100 nM
C=CC(=O)Nc1cc(C)ccc1Nc1nc(Nc2cc(OC)nc(N3CCN(C)CC3)c2)ncc1C(F)(F)F [Compound I-325, N-(2-((2-((2-methoxy-6-(4-methylpiperazin-1-yl)pyridin-4-yl)amino)-5-(trifluoromethyl)pyrimidin-4-yl)amino)-5-methylphenyl)acrylamide]	< 100 nM	101 to 500 nM	< 100 nM
C=CC(=O)Nc1cc(C)ccc1Nc1nc(Nc2cc(NC3CC3)nc(OC)c2)ncc1C(F)(F)F [Compound I-337, N-(2-((2-((2-(cyclopropylamino)-6-methoxypyridin-4-yl)amino)-5-(trifluoromethyl)pyrimidin-4-yl)amino)-5-methylphenyl)acrylamide]	< 100 nM	501 to 999 nM	< 100 nM
C=CC(=O)Nc1ccccc1Nc1nc(Nc2ccnnc2)ncc1C(F)(F)F [Compound I-293, N-(2-((2-(Pyridazin-4-ylamino)-5-(trifluoromethyl)pyrimidin-4-yl)amino)phenyl)acrylamide]	< 100 nM	101 to 500 nM	< 100 nM
C=CC(=O)Nc1ccccc1Nc1nc(N[C@H]2CCCN(C(C)=O)C2)ncc1Cl [Compound I-115, (S)—N-(2-((2-((1-acetylpiperidin-3-yl)amino)-5-chloropyrimidin-4-yl)amino)phenyl)acrylamide]	< 100 nM	< 100 nM	< 100 nM
C=CC(=O)Nc1ccccc1Nc1nc(Nc2cc(OC)nc(N3CCCCC3)c2)ncc1C(F)(F)F [Compound I-282, N-(2-((2-((2-Methoxy-6-(piperidin-1-yl)pyridin-4-yl)amino)-5-(trifluoromethyl)pyrimidin-4-yl)amino)phenyl)acrylamide]	< 100 nM	101 to 500 nM	< 100 nM
C=CC(=O)Nc1ccccc1Nc1nc(N[C@H]2CCN(C(=O)CO)C2)ncc1C(F)(F)F [Compound I-57, (S)—N-(2-((2-((1-(2-Hydroxyacetyl)pyrrolidin-3-yl)amino)-5-(trifluoromethyl)pyrimidin-4-yl)amino)phenyl)acrylamide]	101 to 500 nM	101 to 500 nM	101 to 500 nM
C=CC(=O)Nc1ccccc1Nc1nc(N[C@H]2CCN(S(C)(=O)=O)C2)ncc1C(F)(F)F [Compound I-58, (S)—N-(2-((2-((1-(Methylsulfonyl)pyrrolidin-3-yl)amino)-5-(trifluoromethyl)pyrimidin-4-yl)amino)phenyl)acrylamide]	101 to 500 nM	101 to 500 nM	101 to 500 nM
C=CS(=O)(=O)Nc1cc(C)ccc1Nc1nc(Nc2cc(OC)ncc2C)ncc1C(F)(F)F [Compound I-333, N-(2-((2-((2-methoxy-5-methylpyridin-4-yl)amino)-5-(trifluoromethyl)pyrimidin-4-yl)amino)-5-methylphenyl)ethenesulfonamide]	> 1000 nM	101 to 500 nM	> 1000 nM
C=CC(=O)Nc1cc(C(F)(F)F)ccc1Nc1nc(Nc2cc(OC)ncc2C)ncc1C(F)(F)F [Compound I-323, N-(2-((2-((2-methoxy-5-methylpyridin-4-yl)amino)-5-(trifluoromethyl)pyrimidin-4-yl)amino)-5-(trifluoromethyl)phenyl)acrylamide]	101 to 500 nM	101 to 500 nM	101 to 500 nM
